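48-hour exposure; five concentrations; linearly interpolated endpoints. Definition used: TGI = concentration required for complete inhibition of growth.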
What was measured:
Assay in all cases: growth of human tumour cells (NCI), 48 h
A498 renal = system: A498 renal
DU-145 prostate = system: DU-145 prostate
OVCAR-4 ovarian = system: OVCAR-4 ovarian
UO-31 renal = system: UO-31 renal
MCF7 breast = system: MCF7 breast
CAKI-1 renal = system: CAKI-1 renal
TK-10 renal = system: TK-10 renal
KM12 colon = system: KM12 colon
HOP-92 NSCLC = system: HOP-92 NSCLC
SW-620 colon = system: SW-620 colon
SK-MEL-28 melanoma = system: SK-MEL-28 melanoma
SNB-19 CNS = system: SNB-19 CNS
MALME-3M melanoma = system: MALME-3M melanoma
MDA-N = system: MDA-N
UACC-62 melanoma = system: UACC-62 melanoma
SK-MEL-2 melanoma = system: SK-MEL-2 melanoma
HCC-2998 colon = system: HCC-2998 colon
T-47D breast = system: T-47D breast
SF-268 CNS = system: SF-268 CNS
HS 578T breast = system: HS 578T breast
COLO 205 colon = system: COLO 205 colon
NCI-H226 lung = system: NCI-H226 lung
HT29 colon = system: HT29 colon
A549 NSCLC = system: A549 NSCLC
MDA-MB-435 = system: MDA-MB-435
MDA-MB-231 breast = system: MDA-MB-231 breast
SNB-75 CNS = system: SNB-75 CNS
BT-549 breast = system: BT-549 breast
OVCAR-8 ovarian = system: OVCAR-8 ovarian
NCI/ADR-RES ovarian = system: NCI/ADR-RES ovarian
NCI-H23 lung = system: NCI-H23 lung
NCI-H522 lung = system: NCI-H522 lung
NCI-H460 lung = system: NCI-H460 lung
UACC-257 melanoma = system: UACC-257 melanoma
PC-3 prostate = system: PC-3 prostate
LOX IMVI melanoma = system: LOX IMVI melanoma
K-562 leukemia = system: K-562 leukemia
ACHN renal = system: ACHN renal
786-0 renal = system: 786-0 renal
SK-OV-3 ovarian = system: SK-OV-3 ovarian
HCT-116 colon = system: HCT-116 colon
SK-MEL-5 melanoma = system: SK-MEL-5 melanoma
RPMI-8226 leukemia = system: RPMI-8226 leukemia
SF-295 CNS = system: SF-295 CNS
SN12C renal = system: SN12C renal
SF-539 CNS = system: SF-539 CNS
HCT-15 colon = system: HCT-15 colon
U251 CNS = system: U251 CNS
SR leukemia = system: SR leukemia
M14 melanoma = system: M14 melanoma
OVCAR-5 ovarian = system: OVCAR-5 ovarian
EKVX NSCLC = system: EKVX NSCLC
MOLT-4 leukemia = system: MOLT-4 leukemia
CCRF-CEM leukemia = system: CCRF-CEM leukemia
OVCAR-3 ovarian = system: OVCAR-3 ovarian
HL-60(TB) leukemia = system: HL-60(TB) leukemia
HOP-62 NSCLC = system: HOP-62 NSCLC
IGROV1 ovarian = system: IGROV1 ovarian
RXF 393 renal = system: RXF 393 renal

ON=C1CCCCC(=NO)CCCC1
TGI (A498 renal): > 100 µM | TGI (DU-145 prostate): > 100 µM | TGI (OVCAR-4 ovarian): > 100 µM | TGI (UO-31 renal): > 100 µM | TGI (MCF7 breast): > 100 µM | TGI (CAKI-1 renal): > 100 µM | TGI (TK-10 renal): > 100 µM | TGI (KM12 colon): > 100 µM | TGI (HOP-92 NSCLC): > 100 µM | TGI (SW-620 colon): > 100 µM | TGI (SK-MEL-28 melanoma): > 100 µM | TGI (SNB-19 CNS): > 100 µM | TGI (MALME-3M melanoma): > 100 µM | TGI (MDA-N): > 100 µM | TGI (UACC-62 melanoma): > 100 µM | TGI (SK-MEL-2 melanoma): > 100 µM | TGI (HCC-2998 colon): > 100 µM | TGI (T-47D breast): > 100 µM | TGI (SF-268 CNS): > 100 µM | TGI (HS 578T breast): > 100 µM | TGI (COLO 205 colon): > 100 µM | TGI (NCI-H226 lung): > 100 µM | TGI (HT29 colon): > 100 µM | TGI (A549 NSCLC): > 100 µM | TGI (MDA-MB-435): > 100 µM | TGI (MDA-MB-231 breast): > 100 µM | TGI (SNB-75 CNS): > 100 µM | TGI (BT-549 breast): > 100 µM | TGI (OVCAR-8 ovarian): > 100 µM | TGI (NCI/ADR-RES ovarian): > 100 µM | TGI (NCI-H23 lung): > 100 µM | TGI (NCI-H522 lung): > 100 µM | TGI (NCI-H460 lung): > 100 µM | TGI (UACC-257 melanoma): > 100 µM | TGI (PC-3 prostate): > 100 µM | TGI (LOX IMVI melanoma): > 100 µM | TGI (K-562 leukemia): > 100 µM | TGI (ACHN renal): > 100 µM | TGI (786-0 renal): > 100 µM | TGI (SK-OV-3 ovarian): > 100 µM | TGI (HCT-116 colon): > 100 µM | TGI (SK-MEL-5 melanoma): > 100 µM | TGI (RPMI-8226 leukemia): > 100 µM | TGI (SF-295 CNS): > 100 µM | TGI (SN12C renal): > 100 µM | TGI (SF-539 CNS): > 100 µM | TGI (HCT-15 colon): > 100 µM | TGI (U251 CNS): > 100 µM

Cc1ccnc(NS(=O)(=O)c2ccc(NC(=O)c3ccc4nc5ccccc5c(Nc5ccc(S(=O)(=O)Nc6nccc(C)n6)cc5)c4c3)cc2)n1
TGI (SR leukemia): 55.6 µM | TGI (DU-145 prostate): > 100 µM | TGI (OVCAR-4 ovarian): > 100 µM | TGI (UO-31 renal): > 100 µM | TGI (M14 melanoma): > 100 µM | TGI (MCF7 breast): 75.1 µM | TGI (CAKI-1 renal): > 100 µM | TGI (OVCAR-5 ovarian): > 100 µM | TGI (TK-10 renal): > 100 µM | TGI (KM12 colon): > 100 µM | TGI (HOP-92 NSCLC): 55.4 µM | TGI (SW-620 colon): > 100 µM | TGI (SK-MEL-28 melanoma): > 100 µM | TGI (SNB-19 CNS): > 100 µM | TGI (MALME-3M melanoma): > 100 µM | TGI (MDA-N): > 100 µM | TGI (UACC-62 melanoma): > 100 µM | TGI (SK-MEL-2 melanoma): 39.5 µM | TGI (HCC-2998 colon): > 100 µM | TGI (T-47D breast): > 100 µM | TGI (SF-268 CNS): > 100 µM | TGI (HS 578T breast): > 100 µM | TGI (COLO 205 colon): > 100 µM | TGI (NCI-H226 lung): > 100 µM | TGI (EKVX NSCLC): > 100 µM | TGI (MOLT-4 leukemia): > 100 µM | TGI (HT29 colon): > 100 µM | TGI (CCRF-CEM leukemia): > 100 µM | TGI (A549 NSCLC): > 100 µM | TGI (MDA-MB-435): > 100 µM | TGI (MDA-MB-231 breast): > 100 µM | TGI (SNB-75 CNS): > 100 µM | TGI (BT-549 breast): 32.6 µM | TGI (OVCAR-8 ovarian): > 100 µM | TGI (NCI/ADR-RES ovarian): > 100 µM | TGI (NCI-H23 lung): > 100 µM | TGI (OVCAR-3 ovarian): 95.6 µM | TGI (NCI-H522 lung): 87.4 µM | TGI (NCI-H460 lung): > 100 µM | TGI (HL-60(TB) leukemia): > 100 µM | TGI (UACC-257 melanoma): > 100 µM | TGI (PC-3 prostate): > 100 µM | TGI (LOX IMVI melanoma): > 100 µM | TGI (K-562 leukemia): > 100 µM | TGI (ACHN renal): > 100 µM | TGI (786-0 renal): > 100 µM | TGI (SK-OV-3 ovarian): > 100 µM | TGI (HCT-116 colon): > 100 µM | TGI (SK-MEL-5 melanoma): > 100 µM | TGI (RPMI-8226 leukemia): > 100 µM | TGI (HOP-62 NSCLC): > 100 µM | TGI (IGROV1 ovarian): > 100 µM | TGI (SF-295 CNS): > 100 µM | TGI (SN12C renal): > 100 µM | TGI (RXF 393 renal): 51.2 µM | TGI (SF-539 CNS): > 100 µM | TGI (HCT-15 colon): > 100 µM | TGI (U251 CNS): 41.7 µM

— PubChem BioAssay (NCI)
